Source: PMC8621334, “Ammonium Formate-Pd/C as a New Reducing System for 1,2,4-Oxadiazoles. Synthesis of Guanidine Derivatives and Reductive Rearrangement to Quinazolin-4-Ones with Potential Anti-Diabetic Activity” (International Journal of Molecular Sciences, 2021)

target: T1, Dipeptidyl-Peptidase IV (DPPIV) (Homo sapiens, UniProt P27487); assay: fluorometric DPPIV activity assay kit, % inhibition at […]; assay type: biochemical
T1 construct: gene DPP4
T1 sequence (P27487 whole entry): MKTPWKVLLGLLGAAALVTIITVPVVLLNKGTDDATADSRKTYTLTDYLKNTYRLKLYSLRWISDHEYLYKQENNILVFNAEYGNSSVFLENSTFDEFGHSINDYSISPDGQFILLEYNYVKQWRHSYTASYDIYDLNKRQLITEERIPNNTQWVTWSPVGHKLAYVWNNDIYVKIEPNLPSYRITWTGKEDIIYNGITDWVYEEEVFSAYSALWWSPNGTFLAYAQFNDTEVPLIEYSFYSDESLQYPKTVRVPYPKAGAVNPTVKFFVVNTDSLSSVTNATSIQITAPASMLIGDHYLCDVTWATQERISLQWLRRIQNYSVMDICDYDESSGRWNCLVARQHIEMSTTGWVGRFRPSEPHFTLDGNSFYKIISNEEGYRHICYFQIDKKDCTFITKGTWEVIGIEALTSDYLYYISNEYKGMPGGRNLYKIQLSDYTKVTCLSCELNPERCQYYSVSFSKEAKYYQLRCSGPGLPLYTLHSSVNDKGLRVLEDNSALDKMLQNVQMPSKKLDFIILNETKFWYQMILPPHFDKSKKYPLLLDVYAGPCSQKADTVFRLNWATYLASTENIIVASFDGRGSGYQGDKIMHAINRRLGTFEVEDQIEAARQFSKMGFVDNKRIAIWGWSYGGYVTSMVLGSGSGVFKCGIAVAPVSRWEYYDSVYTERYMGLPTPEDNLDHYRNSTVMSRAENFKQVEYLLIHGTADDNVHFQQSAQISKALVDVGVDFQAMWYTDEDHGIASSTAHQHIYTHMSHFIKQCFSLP

| Compound | inhibition at 100 µM [%] |
| --- | --- |
| N=C(NC(=O)c1ccccc1)NC(=O)c1ccccc1 [2n, N,N′-(Iminomethylene)dibenzamide] | 82.7 |
| CC(=O)NC(=N)NC(=O)c1ccccc1 [2k, N-(N-Acetylcarbamimidoyl)benzamide] | 79.3 |

The next lines start with the values.

| inhibition at 100 µM [%] | Compound |
| --- | --- |
| 72.5 | O=c1nc(-c2ccc(C(F)(F)F)cc2)[nH]c2ccccc12 [4i, 2-(4-(Trifluoromethyl)phenyl)quinazolin-4(1H)-one] |
| 82.4 | COc1ccc(-c2nc(=O)c3ccccc3n2C)cc1 [4f, 2-(4-Methoxyphenyl)-1-methylquinazolin-4(1H)-one] |
| 79.1 | COc1ccc(-c2nc(=O)c3ccccc3[nH]2)cc1 [4h, 2-(4-Methoxyphenyl) quinazolin-4(1H)-one] |
